Calls of active or inactive are those of the source. How the calls were made is not given here.
How the values were obtained:
[1] = IC90 against starved M. tuberculosis, dose response, CFU by imaging, dry powder, 7108-04 (AID 743164); details: Mycobacterium tuberculosis, starved, CFU imaging
[2] = system: Mycobacterium tuberculosis, starved, CFU imaging; assay: as above

| SMILES | outcome [1] | IC90 [2] |
| --- | --- | --- |
| CCOC(=O)NC(=O)c1ccsc1NC(=O)c1nc2ccccc2s1 | inactive |  |
| Cn1c(NC(=O)c2ccccc2)nc2ccccc21 |  | < 8 µM |
